Columns and labels:
EO771 tumors = assay: EO771 orthotopic breast tumor model in immunocompetent C57BL/6 mice; assay type: in vivo; details: 20 mg kg-1 intraperitoneal, 3 times/week for 2 weeks
Description: T cell effector function analysis: We measured cytokine and cytolytic granule production (IFNγ, GZMB and TNFα) of CD8+ T cells from mouse tumor samples and tumor organoid-T cell co-culture. Briefly, CD8+ T cells were placed into the 24-well plate at 1×10^6 cells/well, stimulated with 1 μM ionomycin and 50 ng ml-1 phorbol 12-myristate 13-acetate (PMA) (Sigma-Aldrich) for 4 h, in the presence of 5 μg ml-1 Brefeldin A (BFA), with the purpose to amplify the expression of intracellular cytokines61. The cells were stained with APC/Cy7-conjugated anti-CD8a (Biolegend) for 15 min and then fixed by 4% PFA. After washing, cells were stained with PerCP/Cy7-conjugated anti-GZMB, APC-conjugated anti-IFNγ and PE-conjugated anti-TNFα (Biolegend) for 15 min. In flow cytometric analyses, T cells stained with isotype control antibodies were used as negative controls for gating the cytokine or granule-producing cells. For T cells from tumor organoid-T cell co-culture, tumor organoids were first digested into single cells with TrypLE Express at 37° C. before APC/Cy7-conjugated anti-CD8a staining. In the IFNγ and TNFα secretion assay (Biolegend), T cells were stimulated with ionomycin and PMA without the presence of BFA. The media were collected for ELISA assay.
Immunohistochemistry (IHC) and Immunofluorescence (IF) analysis of tumor organoids: Tumor organoids were gently centrifuged at 100 rcf from organoid culture medium and then embedded in 2% agar. Tumor organoids were fixed in 4% paraformaldehyde solution for overnight at room temperature. The samples were replaced with 70% ethanol and later embedded in paraffin blocks. Paraffin sections were cut at 5 μm thickness, attached on slides, heated at 60° C. for 1 h and then overnight at 37° C. The slides were stained with hematoxylin and eosin (H&E). IHC staining follows the protocol described62. Mouse-specific antibodies for CD8α (Cell Signaling Technology, clone D4W2Z, 1:400 dilution), cleaved caspase3 (Cell Signaling Technology, clone D175, 1:400 dilution) and Ki67 (Cell Signaling Technology, clone D3B5, 1:400 dilution) were used for IHC staining. The DAB peroxidase substrate kit (Vector laboratories Inc.) was used to visualize the antibodies. For IF analysis, the sample slides were blocked 3% BSA for 40 min after hydration. The slides were stained with primary antibodies including EpCAM (Abcam, 1:400 dilution), FITC-conjugated anti-α-SMA (Genetex, 1:400 dilution) and AF594-conjugated anti-CD31 (Biolegend) for 1 h. For EpCAM staining, the slide was further stained with secondary antibody Alexa Fluor 647-conjugated anti-rabbit IgG (Biolegend, 1:200) for 40 min. The fluorescence images were captured under a Leica DM4B microscope.
Animal studies: All animal experiments were performed in accordance with the National Institutes of Health's Animal Use Guidelines and protocols approved by the Animal Care and Use Committee of Indiana University School of Medicine. To examine the tumorigenic potential of tumor organoids, tumor organoids with different sizes (diameter of 30-70, 70-150, and 150-500 μm) were orthotopically injected into fat pad of the 4th mammary gland in female C57BL/6 mice. Each mouse was injected with a total of 2×10^5 tumor cells. 5 mice were used in each group. Tumors were measured in two dimensions using a manual caliper. Tumor volume was calculated using the following formula: V=0.5×length×width×width. Tumor volume was measured every 3 days. Tumors were harvested 22 days after injection. The tumor growth, volume and weight were analyzed. To evaluate the anti-tumor effect of drugs in immunocompetent C57BL/6 mice and immunodeficient nude (NU/J) mice, 2×10^5 EO771 cells were orthotopically injected into fat pad of the 4th mammary gland in female mice. […]

[1] = test system: EO771 (Luc+OVA+) tumor organoids; assay: Intra-tumor infiltration of T cells in tumor organoids; assay type: cell-based, mouse; details: 48 h treatment, then co-culture with OT-I T cells
Description: To evaluate intra-tumor infiltration of T cells, EO771 (Luc+OVA+) tumor organoids were treated with indicated drugs for 48 h, and then co-cultured with OT-I T cells. After co-culture for 48 h, the organoids with T cells inside or attached were dissociated by TrypLE Express (Thermo Fisher) into single cells and stained with APC/Cy7-conjugated anti-mouse CD8 (Biolegend) and SYTOX Blue reagent for 15 min. The CD8+ T cell proportions from tumor organoids were analyzed by flow cytometry.

COc1ccccc1S(=O)(=O)Nc1ccc2c(c1)CN(C)C(=O)N2 [PFI-1]
anti-tumor effect in animal experiments (EO771 tumors): no anti-tumor effect | CD8+ T cell infiltration in the tumor organoids [1]: poor T cell infiltration
